Measurements as given in patent US20220401751A1, “Thalamic Input to Orbitofrontal Cortex Drives Brain-Wide, Frequency-Dependent Inhibition Mediated By GABA and Zona Incerta” (priority 2019, published 2022).
Counter-ions that a name gives are not always drawn.

Legend:
GABAA receptors = experiment: Single-unit recordings in contralateral VLO during 10 Hz thalamocortical stimulation before and after micro-infusion of BMI; assay type: in vivo, Sprague-Dawley rats
Experimental: It was next hypothesized that decreases in cortical activity reflect direct GABA-mediated inhibition. The dependence of this response on downstream GABA release was tested by comparing evoked changes in firing rate before and after micro-infusion of bicuculline methiodide (BMI). […] Single-unit recordings were performed in cVLO, where negative fMRI signals were observed during 10 Hz thalamocortical stimulation (FIG. 5A). To ensure that any changes associated with BMI infusion were due to its pharmacological effect, infusions with sterile saline were first performed. To inject both BMI and saline, a pair of cannulas was attached to the recording electrode directly above the electrical contacts (FIG. 5B).
(§1) In vivo electrophysiology was performed to directly measure the neuronal activity of various brain regions during thalamocortical stimulation. As with imaging, anesthesia was maintained with a mixture of 02 (35%), N20 (65%), and −1.5% isoflurane. Throughout the procedure, body temperature was maintained at 37° C. using a thermoresistive heating pad (FHC, Inc., ME, USA). After securing the animal within a stereotactic frame, a 16-channel microelectrode array (NeuroNexus Technologies, MI, USA; A1×16 standard model linear electrode array) was inserted at the desired recording site. For recordings at the site of stimulation and zona incerta, an optical fiber glued to the electrode tip was used to deliver light. Remote recordings were performed at the following coordinates, averaged across animals: contralateral VLO (+4.68 mm AP, −1.90 mm ML, −4.90 mm DV), ipsilateral motor cortex (+3.24 mm AP, +2.43 mm ML, −3.00 mm DV), ipsilateral reticular nucleus (−1.86 mm AP, +2.20 mm ML, −6.93 mm DV), contralateral reticular nucleus (−1.92 mm AP, −2.10 mm ML, −7.17 mm DV), and ipsilateral zona incerta (−4.00 mm AP, +3.10 mm ML, −7.13 mm DV). Light was delivered to the fiber-optic implant at VLO via a 473 nm laser source calibrated to 5 mW power delivery. In one animal, a higher power level was used (no more than −2×) to account for a fiber implanted in a relatively dorsal position in VLO. For the optrode positioned in zona incerta, a […] diameter optical fiber was used to deliver continuous light from a 589 nm laser source (LaserGlow Technologies) calibrated to 5 mW at the implanted fiber's tip. Recordings were performed for 20 s without stimulation, followed by repeated stimulation cycles (20 s on, 40 s off) at 10 or 40 Hz with a 30% duty cycle. To assess the role of zona incerta, 10 Hz stimulation trials were interleaved with 30 s periods of simultaneous eNpHR activation beginning 5 s prior to 10 Hz stimulation (FIG. 7B).
(§2) Pharmacological infusions were performed during in vivo electrophysiology (same procedure as described above) with bicuculline methiodide (BMI; 0.6 mg/ml; Sigma-Aldrich #14343), lidocaine hydrochloride (2%; Fresenius Kabi, IL, USA; #491507), or sterile saline as a control. Solutions were delivered at a rate of 250 nL/min via two polyethylene cannulas (0.011/0.024″ ID/OD; A-M Systems, WA, USA)—one for saline and one for the active pharmacological agent—glued to the tip of a recording electrode, directly above the topmost recording contact. Cannula tips were beveled to ensure that injected solutions were released in the direction of the electrode.
(§3) Infusions of saline and BMI (500 nL) were performed in the contralateral VLO while recording directly below the site of infusion (FIG. 5B). For each solution, twenty 10 Hz stimulation/recording trials were performed before infusion onset, and twenty more trials were performed immediately after infusion. Saline was delivered first, followed by BMI. To assess the role of zona incerta, saline and lidocaine (500-1000 nL) were delivered to the ipsilateral zona incerta while recording in the contralateral VLO. […]

zona incerta = experiment: Single-unit recordings in contralateral VLO during 10 Hz thalamocortical stimulation after lidocaine infusion in zona incerta; assay type: in vivo, Sprague-Dawley rats
Experimental: ZI activity was first inactivated via incertal infusions of the sodium channel blocker lidocaine hydrochloride (FIG. 6A and FIGS. 14A-14B). […] In contrast, only 72% of units were inhibited during 10 Hz stimulation after inactivation of zona incerta with lidocaine (FIG. 6B).
as §1, §2, §3

[1] = cVLO baseline (pre-stimulation) firing rate

C[N+]1(C)CCc2cc3c(cc2[C@H]1[C@@H]1OC(=O)c2c1ccc1c2OCO1)OCO3.[I-] [BMI, bicuculline methiodide]
stimulus-evoked change in firing rate of a representative cVLO unit (GABAA receptors; 10 Hz stimulation after BMI infusion, p=0.63): no longer causes a significant change in firing rate | effect on stimulus-evoked inhibition in cVLO (GABAA receptors; 10 Hz thalamocortical stimulation, after BMI infusion): completely eliminated the stimulus-evoked inhibition | time course of the reduction in stimulus-evoked inhibition (GABAA receptors; after BMI infusion, twenty 10 Hz trials): took immediate effect after BMI infusion and continued throughout the following twenty trials | units whose baseline firing rate decreased following BMI infusion (GABAA receptors; [1]): 18% | units whose baseline firing rate increased following BMI infusion (GABAA receptors; [1]): 27% | recorded units not modulated by stimulation after BMI infusion (GABAA receptors; cVLO units, 10 Hz thalamocortical stimulation, after 500 nL BMI (0.6 mg/ml) infusion in cVLO, 49 units, 2 animals, 20 trials per condition): 96% | recorded units exhibiting a significant increase in firing rate during stimulation after BMI infusion (GABAA receptors; cVLO units, 10 Hz thalamocortical stimulation, after BMI infusion): 4% | average baseline firing rate across all units after BMI infusion (GABAA receptors; cVLO, p=0.66): not significantly different

CCN(CC)CC(=O)Nc1c(C)cccc1C [lidocaine, lidocaine hydrochloride]
stimulus-evoked change in firing rate of a representative cVLO unit (zona incerta; 10 Hz stimulation after lidocaine infusion, p=0.31): no longer exhibits a significant change in firing rate | time course of the reduction in evoked inhibition (zona incerta; after lidocaine infusion in zona incerta, twenty 10 Hz trials): took immediate effect after lidocaine infusion and persisted throughout the following twenty trials | units inhibited during 10 Hz stimulation after inactivation of zona incerta (zona incerta; cVLO units, lidocaine (2%, 500-1000 nL) infused in ipsilateral zona incerta, N=62 units, 20 trials per condition): 72% | stimulus-evoked changes in firing rate versus baseline and post-saline values (zona incerta; cVLO, post-hoc tests, p=9.6×10^−10 and 3.0×10^−7): different than both baseline and post-saline values | effect on remote cortical inhibition driven by 10 Hz stimulation in a subset of recorded units (zona incerta; incertal infusion, representative cVLO unit): completely eliminated the remote cortical inhibition
